The target of experiment [1] is T1, human SGLT2 (Homo sapiens, UniProt P31639).
T1 construct: expressed in transfected cells; pcDNA vector)
T1 sequence (P31639 1-672): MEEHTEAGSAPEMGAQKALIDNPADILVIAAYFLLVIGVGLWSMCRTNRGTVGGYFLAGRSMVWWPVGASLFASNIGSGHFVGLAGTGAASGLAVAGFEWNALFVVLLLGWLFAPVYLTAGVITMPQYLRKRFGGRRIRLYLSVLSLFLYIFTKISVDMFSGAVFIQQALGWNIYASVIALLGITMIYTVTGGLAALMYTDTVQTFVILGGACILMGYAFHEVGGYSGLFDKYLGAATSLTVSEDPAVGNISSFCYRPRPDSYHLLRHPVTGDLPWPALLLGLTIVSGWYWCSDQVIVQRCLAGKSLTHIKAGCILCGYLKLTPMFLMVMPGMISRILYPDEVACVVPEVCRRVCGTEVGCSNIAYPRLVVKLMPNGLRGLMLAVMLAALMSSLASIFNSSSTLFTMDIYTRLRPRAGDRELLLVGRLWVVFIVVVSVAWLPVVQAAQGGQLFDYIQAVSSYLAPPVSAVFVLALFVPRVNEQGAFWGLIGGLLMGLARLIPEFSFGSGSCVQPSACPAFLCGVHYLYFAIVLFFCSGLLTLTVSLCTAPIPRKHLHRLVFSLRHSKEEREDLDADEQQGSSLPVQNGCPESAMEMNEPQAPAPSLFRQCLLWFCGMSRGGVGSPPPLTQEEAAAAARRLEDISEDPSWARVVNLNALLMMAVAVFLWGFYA
Kind of experiment: Cell-based assay for sodium-dependent glucose transport (14C-AMG uptake), CHOK-SGLT2. The settings on record: CHO-K1 cells stably expressing human SGLT2, Na-dependent 14C-AMG uptake; for inhibition at 10 µM: read-out: CHOK-SGLT2 % Inh. @10 μM. The method, then:
(§1) Cloning of the human SGLT1 and human SGLT2 cDNAs and construction of the mammalian expression vector: The human SGLT1 cDNA (Genbank M24847) was cloned from human small intestine. Human SGLT2 cDNA (Genbank M95549) was cloned from human kidney. Both full cDNAs were subcloned into pcDNA and sequenced to verify the integrity of the construct.
(§2) Generation of CHO-K1 cells stably expressing human SGLT1 or human SGLT2: Transfection of CHO-K1 cells was performed using DMRIE-C reagent (Life Technologies, Gaithersburg, Md.). Transfectants were then selected in the presence of the antibiotic G418 (Gibco-BRL, Grand Island, N.Y.) at 400 μg/ml. Individual clones were then characterized using the functional assay described below.
(§3) Cell-based assay for sodium-dependent glucose transport: Cell lines stably expressing human SGLT1 or SGLT2 were then used for functional analysis of Na+-dependent glucose uptake. Briefly, cells were plated at a density of 65,000 cells per well in a 96-well plate and allowed to grow for 48 hours. Cells were subsequently washed one time with Assay Buffer (50 mM HEPES pH 7.4, 20 mM Tris, 5 mM KCl, 1 mM MgCl2, 1 mM CaCl2 and 137 mM NaCl) and treated with compound in the absence or presence of NaCl for 15 minutes. Cells were then labeled with ^14C-α-methylglucopyranoside (AMG, Sigma, St. Louis, Mo.), a non-metabolizable glucose analog specific for sodium-dependent glucose transporters as previously described (Peng, H. and Lever J. E. Post-transcriptional regulation of Na^+/glucose cotransporter (SGLT1) gene expression in LLC-PK1 cells. J Biol Chem 1995; 270:20536-20542.). After 2 hours the labelled cells were washed three times with ice-cold PBS. After aspiration, cells were solubilized using Microscint 20 (Packard, Meriden, Conn.) and Na-dependent ^14C-AMG uptake was quantified by measuring radioactivity. Plates were counted in a TopCount (Packard, Meriden, Conn.). Results are reported as the % inhibition or IC50 value from a representative experiment. Variability for the functional assay was typically within 20%.

The target of experiment [2] is T2, human SGLT1 (Homo sapiens, UniProt P13866).
T2 construct: expressed in transfected cells; pcDNA vector)
T2 sequence (P13866 1-664): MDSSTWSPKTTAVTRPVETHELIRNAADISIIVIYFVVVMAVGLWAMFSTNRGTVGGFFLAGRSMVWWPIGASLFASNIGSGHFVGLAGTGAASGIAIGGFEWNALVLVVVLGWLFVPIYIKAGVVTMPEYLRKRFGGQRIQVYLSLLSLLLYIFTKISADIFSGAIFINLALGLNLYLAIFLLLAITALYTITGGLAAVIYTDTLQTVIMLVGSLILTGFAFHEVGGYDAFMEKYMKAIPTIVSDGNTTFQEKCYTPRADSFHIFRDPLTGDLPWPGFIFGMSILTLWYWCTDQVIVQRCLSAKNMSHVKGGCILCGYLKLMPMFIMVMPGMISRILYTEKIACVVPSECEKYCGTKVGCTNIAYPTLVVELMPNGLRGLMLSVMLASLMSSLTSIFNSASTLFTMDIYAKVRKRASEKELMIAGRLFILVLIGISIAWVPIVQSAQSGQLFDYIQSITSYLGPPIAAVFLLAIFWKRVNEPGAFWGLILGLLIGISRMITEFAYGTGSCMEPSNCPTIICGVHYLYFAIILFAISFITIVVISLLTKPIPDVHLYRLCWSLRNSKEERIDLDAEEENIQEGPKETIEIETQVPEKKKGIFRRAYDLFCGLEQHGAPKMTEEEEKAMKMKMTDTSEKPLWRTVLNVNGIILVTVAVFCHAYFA
Kind of experiment: Cell-based assay for sodium-dependent glucose transport (14C-AMG uptake), CHOK-SGLT1. The settings on record: CHO-K1 cells stably expressing human SGLT1, Na-dependent 14C-AMG uptake; for inhibition at 10 µM: read-out: CHOK-SGLT1 % Inh. @10 μM. The method, then:
as §1, §2, §3

For the molecule `O=c1[nH]c2cccc(OC3OC(CO)C(O)C(O)C3O)c2n1CCc1ccc2ccccc2c1` [Example 1, 2-[3-(2-Naphthalen-2-yl-ethyl)-1,3-dihydro-benzoimidazol-2-one-4-yloxy]-β-D-glucopyranoside], the inhibition at 10 µM in experiment [1] is 31%.
Regarding `CCc1ccc(Cn2c(=O)[nH]c3cccc(OC4OC(CO)C(O)C(O)C4O)c32)cc1` [Example 3, 2[3-(4-Ethyl-benzyl)-1,3-dihydro-benzoimidazol-2-one-4-yloxy]-β-D-glucopyranoside], the inhibition at 10 µM in experiment [2] came out at 1%. Also, in experiment [1], inhibition was half-maximal at 1.02 µM (IC50).
Take `COc1ccc(CCn2cnc3cccc(OC4OC(CO)C(O)C(O)C4O)c32)cc1` [Example 5, 2-{3-[2-(4-Methoxyphenyl)-ethyl]-3H-benzoimidazol-4-yloxy}-β-D-glucopyranoside]: the inhibition at 10 µM in experiment [2] came out at 61%. Besides, in experiment [1], the IC50 (as a rule, the concentration needed to halve the response being measured) came to 0.365 µM.
`COc1ccc(CCn2nnc3cccc(OC4OC(CO)C(O)C(O)C4O)c32)cc1` [Example 9, 2-{3-[2-(4-methoxy-phenyl)-ethyl]-3H-benzotriazol-4-yloxy}-β-D-glucopyranoside]: the inhibition at 10 µM in experiment [2] is 40%. In experiment [1], this molecule registered an IC50 of 0.39 µM.
`OCC1OC(Oc2cccc3ncn(CCc4ccc5c(c4)CCO5)c23)C(O)C(O)C1O` (stereo not drawn) [Example 7, 2-{3-[2-(2,3-Dihydro-benzofuran-5-yl)-ethyl]-3H-benzoimidazol-4-yloxy}β-D glucopyranoside]: the IC50 worked out at 0.7 µM in experiment [2] and 0.038 µM in experiment [1].
`OCC1OC(Oc2cccc3ncn(CCc4ccc5ccccc5c4)c23)C(O)C(O)C1O` [Example 2, 2-[3-(2-naphthalen-2-yl-ethyl)-3H-benzoimidazol-4-yloxy]-β-D-glucopyranoside]: in experiment [2], the inhibition at 10 µM was 55%. The molecule also came in with an IC50 in experiment [1] of 0.334 µM.
Consider `CCc1ccc(Cn2cnc3cc(C)cc(O[C@@H]4O[C@H](CO)[C@@H](O)[C@H](O)[C@H]4O)c32)cc1` [Example 8, 2-[3-(4-Ethyl-benzyl)-6-methyl-3H-benzoimidazol-4-yloxy]-β-D-glucopyranoside], for which the IC50 in experiment [2] came to 1.12 µM; in experiment [1], 0.061 µM.
In the case of `COc1ccc(CCn2c(=O)[nH]c3cccc(OC4OC(CO)C(O)C(O)C4O)c32)cc1` (stereo not drawn) [Example 6], the inhibition at 10 µM in experiment [1] is 18%.
With `CCc1ccc(Cn2cnc3cccc(OC4OC(CO)C(O)C(O)C4O)c32)cc1` [Example 4, 2-[3-(4-Ethyl-benzyl)-3H-benzoimidazol-4-yloxy]-β-D-glucopyranoside], the half-maximal inhibitory concentration (IC50) in experiment [2] was determined as 1.12 µM; in experiment [1], 0.016 µM.
With `CCc1ccc(Cn2nnc3cccc(OC4OC(CO)C(O)C(O)C4O)c32)cc1` [Example 10, 2-[3-(4-Ethyl-benzyl)-3H-benzotriazol-4-yloxy]-β-D-glucopyranoside], the IC50 in experiment [2] worked out at 0.59 µM; in experiment [1] it was 0.008 µM.

(Values after patent publication US7816330B2, “Substituted benzimidazole-, benztriazole-, and benzimidazolone-O-glucosides” (Janssen Pharmaceutica NV, priority 2003, dated 2010).)
